Experimental data as given in patent publication US8951752B2, “N-demethyase genes and uses thereof” (priority 2011, dated 2015).
Where “and” joins values, the source holds several entries; their conditions need not be identical. Equal entries are not always repeated. Where two headings read alike, the source gives them in different places.

Tests used:
[1] = molecular target: T1, NdmA-His6 (Pseudomonas putida, UniProt H9N289); experiment: Methylxanthine N-demethylase assay and kinetics, NdmA-His6 with His6-NdmD; assay type: biochemical, Pseudomonas putida CBB5
T1 construct: made in house; host or cells: E. coli BL21(DE3)
T1 sequence (H9N289 1-351): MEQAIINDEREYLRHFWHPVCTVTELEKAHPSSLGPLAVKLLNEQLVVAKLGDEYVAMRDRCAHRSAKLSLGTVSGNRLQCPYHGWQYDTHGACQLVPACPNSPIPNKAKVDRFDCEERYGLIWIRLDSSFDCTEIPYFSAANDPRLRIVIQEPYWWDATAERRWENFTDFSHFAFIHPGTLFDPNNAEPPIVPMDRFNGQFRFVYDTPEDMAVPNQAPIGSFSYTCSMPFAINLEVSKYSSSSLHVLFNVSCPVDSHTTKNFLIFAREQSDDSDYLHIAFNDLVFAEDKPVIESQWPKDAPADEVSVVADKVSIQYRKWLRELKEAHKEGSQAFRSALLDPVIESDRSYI
Method: (§1) Methylxanthine N-demethylase activity assay contained, in 1-ml total volume, 0.5 mM methylxanthine, 1 mM NADH, 50 μM Fe(NH4)2(SO4)2, and an appropriate amount of NdmA-His6 or NdmB-His6 (7.4 μg-2.5 mg protein depending on substrate specificity) in 50 mM KPi buffer (pH 7.5). Approximately 4 U of partially purified reductase, prepared as described previously (Summers et al., 2011) or 59 U of purified His6-NdmD was added to reaction mixture. Catalase from bovine liver (4,000 U) was also added to reactions containing His6-NdmD. The reaction mixture was incubated at 30° C. with 300 rpm shaking on an incubating microplate shaker (VWR, Radnor, Pa.). Periodically, a small aliquot was sampled from the reaction mixture and mixed with equal volume of acetonitrile for quantifying concentrations of methylxanthines and N-demethylated products by HPLC. One unit of N-demethylase activity was defined as the consumption of one […] methylxanthine per minute.
(§2) Apparent kinetic parameters of NdmA-His6 and NdmB-His6 were determined by measuring the initial rate of disappearance (vo) of methylxanthines in 50 mM KPi buffer (pH 7.5) at 30° C. The initial substrate concentrations (ESI) used in these experiments were from 25 to 500 μM. Substrates were incubated with His6-NdmD plus either NdmA-His6 or NdmB-His6 under standard conditions for 15 minutes. At 1, 5, 10, and 15 minutes, samples were removed from the reaction mixtures to quantitate substrate concentrations by HPLC. Plots of substrate concentrations against time were used to determine the initial rates of disappearance of substrates which were linear over 15 minutes. The apparent kinetic parameters were determined from Michaelis-Menten plots of vo against [S] fitted with the equation

[2] = molecular target: T2, NdmB-His6 (Pseudomonas putida, UniProt H9N290); experiment: Methylxanthine N-demethylase assay and kinetics, NdmB-His6 with His6-NdmD; assay type: biochemical, Pseudomonas putida CBB5; conditions: for N-demethylase activity: NdmB; for Km: 30° C., pH 7.5, ∞ where no activity
T2 construct: made in house; host or cells: E. coli BL21(DE3)
T2 sequence (H9N290 1-355): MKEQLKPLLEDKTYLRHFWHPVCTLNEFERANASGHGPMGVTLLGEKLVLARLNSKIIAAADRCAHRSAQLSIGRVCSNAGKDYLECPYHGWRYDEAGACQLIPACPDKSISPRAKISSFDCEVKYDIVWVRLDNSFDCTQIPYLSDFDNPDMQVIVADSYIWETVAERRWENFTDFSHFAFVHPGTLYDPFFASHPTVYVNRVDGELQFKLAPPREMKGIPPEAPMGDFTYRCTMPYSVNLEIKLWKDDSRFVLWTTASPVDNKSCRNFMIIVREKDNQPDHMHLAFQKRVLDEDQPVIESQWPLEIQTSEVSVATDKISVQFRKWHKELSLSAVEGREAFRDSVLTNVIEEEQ
Method: as §1, §2

[3] = molecular target: T3, N-demethylase (Ndm: NdmA and NdmB subunits) (Pseudomonas putida, UniProt H9N289+H9N290); experiment: Methylxanthine N-demethylase activity assay with purified Ndm plus partially purified Ccr; assay type: biochemical, Pseudomonas putida CBB5; conditions: for Products identified: same products at 500 and 200 μM substrate; for Relative N-demethylase activity: relative to paraxanthine; for O-demethylation by Ndm: prolonged incubation
T3 construct: lane 3, natural Ndm purified from P. putida CBB5; made in house; host or cells: purified from the natural strain Pseudomonas putida CBB5 (DEAE, Phenyl and Q Sepharose); not recombinant
T3 sequence (H9N289 1-351): T1 sequence (H9N289 1-351)
T3 sequence (H9N290 1-355): T2 sequence (H9N290 1-355)
Method: Methylxanthine N-demethylase activity assay contained, in 1-mL total volume, 0.5 mM methylxanthine, 1 mM NADH, 50 μM Fe(NH4)2(SO4)2, and an appropriate amount of Ndm (0.08-7.5 mg protein, depending on purity of the protein) in 50 mM KPi buffer. Approximately 4 U of partially purified Ccr was added to reaction mixture when assaying Ndm in Phenyl Sepharose and Q Sepharose eluant-fractions (Ccr was not added to the enzyme reaction mixture when assaying Ndm activity in DEAE Sepharose eluant-fractions because Ccr co-eluted with Ndm). The reaction mixture was incubated at 30° C. with 300 rpm shaking on an incubating microplate shaker (VWR). Periodically, a small aliquot was sampled from the reaction mixture and mixed with equal volume of acetonitrile for quantifying concentrations of methylxanthines and N-demethylated products by HPLC. One unit of N-demethylase activity was defined as the consumption of one μmole methylxanthine per minute. When Ndm was coupled with the reductase and ferredoxin components of naphthalene dioxygenase of Pseudomonas sp. strain 9816 (Haigler & Gibson, 1990a; Haigler & Gibson, 1990b), 30 and 100 μg of the respective proteins were used. Spinach ferredoxin reductase and ferredoxin were also substituted for Ccr as described by Subramanian et al. (1979).
Determination of Kinetic Parameters. Apparent kinetic parameters of Ndm were determined by measuring the initial rate of disappearance (vo) of paraxanthine or 7-methylxanthine in 50 mM KPi buffer (pH 7.5) at 30° C. The paraxanthine and 7-methylxanthine concentrations ([S]) used in these experiments were from 20 to 500 μM. Substrates were incubated with Ndm and Ccr under standard conditions for 15 minutes. At 1, 5, 10, and 15 minutes, samples were removed from the reaction mixtures to quantitate substrate concentrations by HPLC. Plots of substrate concentrations against time were used to determine the initial rates of disappearance of substrates which were linear over 15 minutes. The apparent kinetic parameters were determined from Michaelis-Menten plots of Vo against [S] fitted with the equation
Determination of Oxygen Requirement. Oxygen consumption by Ndm during N-demethylation of paraxanthine was determined in a closed reaction vessel equipped with a Clarke-type oxygen electrode (Digitial Modell 0, Rank Brothers Ltd., Cambridge, England). The electrode was calibrated by using glucose oxidase (Sigma) and glucose for consumption of oxygen. Ndm activity assay was performed at 30° C. in a total volume of 1 ml of air-saturated 50 mM KPi buffer (pH 7.5) with 100 μM paraxanthine, 200 μM NADH, 50 μM Fe(NH4)2(SO4)2, 0.2 mg purified Ndm, and 4 U partially purified Ccr. The reaction was initiated by adding Ndm and partially purified Ccr after equilibration of all other reaction components for 3.3 minutes. After 13 minutes, a 100-μL aliquot was withdrawn from the reaction, immediately mixed with equal volume of acetonitrile to stop the enzyme reaction, and analyzed for N-demethylation product by HPLC. Background oxygen consumption, possibly due to NADH oxidase enzyme activity in the partially purified Ccr, was quantitated in control reactions containing all reaction components except paraxanthine.
Formaldehyde Determination. […] Twenty μL Nash reagent was added to 50 μl Ndm reaction sample plus 50 μl acetonitrile. This mixture was incubated at 51° C. for 12 minutes.

[4] = system: cell extracts prepared from P. putida CBB5; experiment: NADH-dependent N-demethylase activity of CBB5 cell extracts; assay type: biochemical, Pseudomonas putida CBB5; conditions: 0.5 mM substrate, 7.2 mg mL^−1 protein
[5] = system: NdmC
[6] = molecular target: T4, Caffeine dehydrogenase (Cdh) from CBB1 (Pseudomonas sp., UniProt D7REY3); conditions: cited from earlier work
T4 sequence (D7REY3 1-791): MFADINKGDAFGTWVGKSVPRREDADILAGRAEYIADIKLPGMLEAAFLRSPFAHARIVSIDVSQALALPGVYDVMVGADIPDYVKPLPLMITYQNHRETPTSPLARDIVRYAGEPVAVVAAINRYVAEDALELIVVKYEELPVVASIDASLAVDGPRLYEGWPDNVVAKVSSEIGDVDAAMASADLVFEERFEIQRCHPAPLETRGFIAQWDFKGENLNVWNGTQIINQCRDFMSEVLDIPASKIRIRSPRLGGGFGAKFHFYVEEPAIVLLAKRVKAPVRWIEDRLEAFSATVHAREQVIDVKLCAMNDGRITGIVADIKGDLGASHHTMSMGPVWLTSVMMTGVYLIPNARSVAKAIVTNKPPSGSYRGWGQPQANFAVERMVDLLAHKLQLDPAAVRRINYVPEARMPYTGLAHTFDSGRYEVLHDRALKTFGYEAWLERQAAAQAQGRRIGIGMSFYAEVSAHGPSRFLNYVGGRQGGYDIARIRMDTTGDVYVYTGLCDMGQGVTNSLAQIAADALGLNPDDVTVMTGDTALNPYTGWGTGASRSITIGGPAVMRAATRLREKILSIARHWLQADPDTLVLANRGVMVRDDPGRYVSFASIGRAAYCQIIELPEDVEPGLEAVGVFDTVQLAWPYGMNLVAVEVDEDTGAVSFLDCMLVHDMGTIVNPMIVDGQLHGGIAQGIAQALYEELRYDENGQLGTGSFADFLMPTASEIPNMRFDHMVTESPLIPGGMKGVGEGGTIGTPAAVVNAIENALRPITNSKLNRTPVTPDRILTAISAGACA
T4 sequence (D7REY4 1-295 partner): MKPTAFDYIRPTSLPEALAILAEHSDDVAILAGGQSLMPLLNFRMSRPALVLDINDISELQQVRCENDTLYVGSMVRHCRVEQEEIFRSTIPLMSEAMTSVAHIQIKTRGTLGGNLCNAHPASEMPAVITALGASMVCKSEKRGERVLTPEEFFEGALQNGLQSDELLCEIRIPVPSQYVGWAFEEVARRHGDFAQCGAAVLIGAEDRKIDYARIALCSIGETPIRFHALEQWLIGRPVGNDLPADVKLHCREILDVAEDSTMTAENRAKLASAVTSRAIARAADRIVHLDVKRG
T4 sequence (D7REY5 1-167 partner): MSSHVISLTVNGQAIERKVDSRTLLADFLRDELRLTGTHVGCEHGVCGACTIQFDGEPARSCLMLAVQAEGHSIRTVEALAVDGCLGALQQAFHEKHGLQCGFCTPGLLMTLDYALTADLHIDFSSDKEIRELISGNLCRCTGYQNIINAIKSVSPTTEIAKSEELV

[7] = 100 μM paraxanthine, 0.2 mg Ndm, 4 U Ccr, after 13 minutes

**Q.** For `Cn1c(=O)[nH]c2nc[nH]c2c1=O` [1-methylxanthine], which “catalytic efficiency relative to theophylline” value ([1]; NdmA) is on record?
**A.** Its value is “two orders of magnitude lower”.

**Q.** What about the Product ([1]; NdmA-His6) of the same compound?
**A.** Its Product is “Xanthine”.

**Q.** What about the “N-demethylase activity” value [2] of the same compound?
**A.** Its value is “no activity”.

**Q.** And the Km ([2]; NdmB-His6)?
**A.** Its Km is “∞”.

**Q.** For `Cn1c(=O)[nH]c(=O)c2[nH]cnc21` [3-Methylxanthine, 3-methylxanthine], which “N-demethylase activity” value ([1]; NdmA) is on record?
**A.** Its value is “inactive”.

**Q.** And the Km ([1]; NdmA-His6, 30° C., pH 7.5, ∞ where no activity)?
**A.** The Km was “∞”.

**Q.** And the Products identified [3]?
**A.** The Products identified was “xanthine”.

**Q.** What about the “Relative N-demethylase activity” value ([3]; substrate conc. 200 μM) of the same compound?
**A.** Its value is 68.9 ± 2.6.

**Q.** And the “Relative N-demethylase activity” value ([3]; substrate conc. 500 μM)?
**A.** The value was 55.2 ± 6.0.

**Q.** And the Product ([2]; NdmB-His6)?
**A.** The Product was “Xanthine”.

**Q.** For `Cn1c(=O)[nH]c2ncn(C)c2c1=O` [Paraxanthine, 1,7-dimethylxanthine], which “time to complete utilization” value ([4]; 0.5 mM NADH) is on record?
**A.** The value was “about 20 minutes”.

**Q.** And the “oxygen consumed during N-demethylation” value [3, 7]?
**A.** The value was 79.5 µM.

**Q.** What about the “paraxanthine N-demethylated” value [3, 7] of the same compound?
**A.** Its value is 60.2 µM.

**Q.** What about the Products identified [3] of the same compound?
**A.** The Products identified was “xanthine and 7-methylxanthine,”.

**Q.** And the “Relative N-demethylase activity” value ([3]; substrate conc. 200 μM)?
**A.** The value was 100.0 ± 3.7.

**Q.** And the “Relative N-demethylase activity” value ([3]; substrate conc. 500 μM)?
**A.** Its value is 100.0 ± 3.1.

**Q.** And the “N-demethylation by NdmC fraction” value [5]?
**A.** Its value is “not N-demethylated”.

**Q.** What about the “N-demethylase activity” value [2] of the same compound?
**A.** Its value is “no activity”.

**Q.** And the Km ([2]; NdmB-His6)?
**A.** Its Km is “∞”.

**Q.** What does the source list for `Cn1c(=O)c2[nH]cnc2n(C)c1=O` [Theophylline, 1,3-dimethylxanthine]?
**A.** activity of Cdh [6]: no activity; activity of Cdh ([6]; substrate specificity study): 5%; degradation rate compared with paraxanthine [4]: significantly slower; Products identified [3]: 1- & 3-methylxanthine, and xanthine; Relative N-demethylase activity ([3]; substrate conc. 200 μM): 14.2 ± 1.6; Relative N-demethylase activity ([3]; substrate conc. 500 μM): 17.6 ± 1.0

**Q.** For `COc1cc(C(=O)O)ccc1O` [vanillate], which “O-demethylation by Ndm” value [3] is on record?
**A.** The value was “did not catalyze O-demethylation”.

**Q.** For `COc1cc(C=O)ccc1O` [vanillin], which “O-demethylation by Ndm” value [3] is on record?
**A.** Its value is “did not catalyze O-demethylation”.

**Q.** With `O=c1[nH]c(=O)c2[nH]cnc2[nH]1` [xanthine] as the compound, how does the “activity of Cdh” value [6] read?
**A.** Its value is “no activity and none”.

**Q.** What about the “product formed from paraxanthine” value ([3]; 7.4 mU / 7.4 units of Ndm, 90 minutes) of the same compound?
**A.** The value was 193.7 ± 4.0 µM and 193.7 ± 14.0 µM.

**Q.** What about the N-demethylation product present ([3]; from paraxanthine, after 13 minutes) of the same compound?
**A.** Its N-demethylation product present is about 20.3 µM.
